The source of these data is US5563130A, “Methods for inhibiting angiogenesis, proliferation of endothelial or tumor cells and tumor growth” (American Cyanamid Company, priority 1994, dated 1996).

Experiment [1] relates to Adult Bovine Aortic Endothelial (ABAE) cell line. The experiment in a line: Antiproliferative activity in ABAE cells, PROTOCOL 1 (48 h, SRB). It counts as cell-based. The conditions noted are these: Bos taurus. As to the method:
PROTOCOL 1, 2, and 3 are described in greater detail hereinbelow. In general, according to PROTOCOLS 1 and 2, the target ABAE and/or Human Tumor cells are exposed to the compound of Formula I for 48 hours. PROTOCOL 3 exposes ABAE cell to the compound for 4 days. A detailed description of the protocol is as follows: Antiproliferative Activity in Human Tumor and Adult Bovine Aortic Endothelial (ABAE) Cell Lines The antiproliferative activity of the compounds of Formula I of the present invention is evaluated in a panel comprised of human tumor cell lines and an adult bovine aortic endothelial cell line (ABAE). […] The number of cells on the plate are quantitated using a protein dye-binding assay (Monks et al., 1991). […] The optical densities are read from an automatic spectrophotometric plate reader (Dynatech) directly to a main frame computer (VAX 8600). […] Mean values and standard errors are determined from duplicate wells. […] The number of cells after treatment (P), as % of control, is calculated for every concentration of drug, as follows: [formula] wherein: T is optical density measurement for treated cells after 48 hours; C is optical density measurement for untreated cells after 48 hours; Co is optical density measurement for cells at the time of drug addition. IC50 of growth inhibition is calculated from the sets of P values using the RS-1 data package (BBN Software). […]

The test system is the same in experiment [2]. The experiment in a line: Antiproliferative activity in ABAE cells, PROTOCOL 3 (4 days, cell count). It counts as cell-based. To be noted: Bos taurus, 96 h, PROTOCOL 3, FIG. 1, read-out: inhibits 50% of cell growth. As to the method: PROTOCOL 1, 2, and 3 are described in greater detail hereinbelow. In general, according to PROTOCOLS 1 and 2, the target ABAE and/or Human Tumor cells are exposed to the compound of Formula I for 48 hours. PROTOCOL 3 exposes ABAE cell to the compound for 4 days. A detailed description of the protocol is as follows:
Antiproliferative Activity in Adult Bovine Aortic Endothelial (ABAE) Cell Line
ABAE cells are grown in DMEM media (Mediatech, Washington, D.C.) supplemented with 10% calf serum (Hyclone). ABAE cells are plated in 24-well dishes at 8,000 cells/well, followed by the addition of increasing concentrations of 7-[substituted amino]-9-[(substituted glycyl)amido]-6-demethyl-6-deoxytetracyclines. After four days, the cells are detached and counted. […] The growth inhibition (I) as % of control is calculated as follows: [formula] wherein: Nc is the number of cells in untreated wells;
Nt is the number of cells in treated wells;
No is the number of plated cells.
IC50 of growth inhibition is determined from the sets of I values plotted by Kaleidograph software (Abelbeck Software).
In addition FIG. 1, presents the dose response curve of the compound of Example 6 for the above ABAE cell line obtained by PROTOCOL 3.

Converted amounts (≈) assume the structure as drawn.

`CN(C)c1ccc(O)c2c1C[C@H]1C[C@H]3[C@H](N(C)C)C(O)=C(C(N)=O)C(=O)[C@@]3(O)C(O)=C1C2=O` [Minocycline, reference compound]: the IC50 in experiment [1] is 6.8 µg/mL (≈ 14.9 µM); in experiment [2], approximately 50 µg/mL (≈ 109 µM).
